PMC4724246 (Molecular cell, 2015)

B1: MCM, wild-type (S. islandicus) (natural protein, UniProt F0NF15 1-686, looked up)
chain: MEIPSKQIDYRDLFIEFLTTFKNTNNQNKYIERINELIAYRKKSLIVEFSDILSFNENLAYEIINNTKIVLPILEGALYDHILQLDPTYQRDIEKVHVRIVGIPRVIELRKIRSTDIDKLITIDGILVKVTPVKERIYKATYKHIHPDCMQEFEWPEDEEMPEILEMPTICPKCGKPGQFRLIPEKTKLIDWQKAVIQERPEEVPSGQLPRQLEIILEDDLVDSARPGDRVKVTGILEIKQDSPIKRGSRAVFDIYMKVSSIEVSQKVLDEVTISEEDEKKIKDLAKDPWIRDRIIASIAPSIYGHWELKEALALALFGGVPKVLEDTRIRGDIHILIIGDPGTAKSQMLQFISRVAPRAVYTTGKGSTAAGLTAAVVREKGTGEYYLEAGALVLADGGIAVIDEIDKMRDEDRVAIHEAMEQQTVSIAKAGIVAKLNARAAVIAAGNPKFGRYITERPVSDNINLPPTILSRFDLIFILKDQPGEQDRELANYILDVHSGKSTKNIIDIDTLRKYIAYARKYIIPKITSEAKNLITDFFVEMRKKSSETPDSPILITPRQLEALIRISEAYAKMALKTEVTREDAERAINIMRLFLESVGVDMESGKIDIDTIMTGKPKSAREKMMKILEIIDSLAVSSECAKVKDILKEAQQVGIEKSNIEKLLTDMRKSGIIYEAKPECYKKV

Legend:
MCM ΔC = MCM ΔC (Saccharolobus islandicus, UniProt F0NF15); test: colorimetric phosphate release ATPase assay; assay type: biochemical; details: 1 mM ATP, 10 mM magnesium acetate, pH 7.9, 50 °C
SEC = target: the molecule itself; test: SEC

Row | Molecule | colorimetric phosphate release ATPase assay (MCM ΔC) | stoichiometry N (SEC)
1 | Nc1ncnc2c1ncn2[C@@H]1O[C@H](COP(=O)(O)OP(=O)(O)OP(=O)(O)O)[C@@H](O)[C@H]1O [ATP] | loss of the wH domain results in a marked activation of the ATPase activity | 
2 | B1 |  | 6
